Article PMC9399411, “Identification of solamargine as a cisplatin sensitizer through phenotypical screening in cisplatin-resistant NSCLC organoids” (Frontiers in Pharmacology, 2022)

Legend:
SMO (smoothened) [1] = biological target: T1, SMO (smoothened) (Homo sapiens, UniProt Q99835); assay: BODIPY-cyclopamine competitive displacement on fixed U2OS-Smo cells (fluorescence imaging), […] solamargine; type: cell-based
T1 construct: human Smo protein stably overexpressed in U2OS cells

SMO (smoothened) [2] = biological target: T1, SMO (smoothened); assay: BODIPY-cyclopamine competitive displacement on fixed U2OS-Smo cells (fluorescence imaging), […] vismodegib; type: cell-based

T1 sequence (Q99835 28-787): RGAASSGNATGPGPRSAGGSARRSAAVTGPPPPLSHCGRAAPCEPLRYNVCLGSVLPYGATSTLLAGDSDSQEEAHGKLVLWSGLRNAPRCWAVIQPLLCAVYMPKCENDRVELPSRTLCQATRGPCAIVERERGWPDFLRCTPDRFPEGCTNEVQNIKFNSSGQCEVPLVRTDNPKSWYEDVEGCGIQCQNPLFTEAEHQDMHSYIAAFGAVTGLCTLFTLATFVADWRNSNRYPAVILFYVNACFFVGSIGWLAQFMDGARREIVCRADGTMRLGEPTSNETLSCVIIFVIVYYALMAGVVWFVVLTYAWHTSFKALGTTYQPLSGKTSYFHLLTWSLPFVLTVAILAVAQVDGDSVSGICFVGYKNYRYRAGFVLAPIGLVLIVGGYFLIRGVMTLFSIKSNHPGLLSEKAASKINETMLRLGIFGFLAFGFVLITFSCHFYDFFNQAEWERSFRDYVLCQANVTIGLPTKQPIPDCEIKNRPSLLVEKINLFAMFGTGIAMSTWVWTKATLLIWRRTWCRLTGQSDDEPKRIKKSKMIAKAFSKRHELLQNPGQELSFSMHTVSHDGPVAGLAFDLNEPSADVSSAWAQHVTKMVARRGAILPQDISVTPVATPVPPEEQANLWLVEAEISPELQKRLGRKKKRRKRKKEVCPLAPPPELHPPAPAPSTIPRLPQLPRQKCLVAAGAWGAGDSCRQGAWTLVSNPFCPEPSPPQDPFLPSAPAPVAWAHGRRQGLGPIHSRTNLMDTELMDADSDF

| Compound | BODIPY-cyclopamine competitive displacement on fixed U2OS-Smo cells (fluorescenc) (SMO (smoothened) [1]) | BODIPY-cyclopamine competitive displacement on fixed U2OS-Smo cells (fluorescenc) (SMO (smoothened) [2]) |
| --- | --- | --- |
| C[C@@H]1CC[C@@]2(NC1)O[C@H]1C[C@H]3[C@@H]4CC=C5C[C@@H](O[C@@H]6O[C@H](CO)[C@@H](O[C@@H]7O[C@@H](C)[C@H](O)[C@@H](O)[C@H]7O)[C@H](O)[C@H]6O[C@@H]6O[C@@H](C)[C@H](O)[C@@H](O)[C@H]6O)CC[C@]5(C)[C@H]4CC[C@]3(C)[C@H]1[C@@H]2C [Solamargine] | fluorescent signaling of BODIPY-cyclopamine wasalso suppressed by Solamargine (Figure 4C), suggesting the inhibitory binding of Solamargine to SMO | – |
| CS(=O)(=O)c1ccc(C(=O)Nc2ccc(Cl)c(-c3ccccn3)c2)c(Cl)c1 [vismodegib] | – | vismodegib can directly bind to SMO and competitively remove BODIPY-cyclopamine from SMO |
